Laboratory results published in patent EP0242417B1, “Morphinane-skeletoned hydrazone derivatives, process for preparing them, pharmaceutical composition and use” (ALKALOIDA VEGYéSZETI GYáR, priority 1986, dated 1987).

Legend:
[1] = Hot plate test (analgetic activity); format: in vivo; settings: sc
[2] = Tail Flick test (analgetic activity); format: in vivo; settings: sc
opiate receptors = experiment: Competition for tritiated Naloxon specific binding in rat brain membrane preparates; settings: tritiated Naloxon bond (1 nanomole) taken as 100 %
Procedure: The effect of the 10⁻⁷ and 10⁻⁵ M concentration of the compounds was examined to tritiated Naloxon bond in rat brain membrane preparates. […]
If the inhibition is high, i.e. the value of the specific bond of the labelled Naloxon is low, the compounds bind to the opiate receptors with high affinity.
A comparative data the tritiated Naloxon bond (concentration: 1 nanomole) was taken as 100 % (without excipients).
The membrane preparate was prepared according to the following article: G.W. Pasternak, H.A. Wilson, S.H. Snyder: Molecular Pharmacol. 11 340-51 (1975).
The specific radioactivity of the labelled Naloxon was 72.4 Ci/mmole [G. Töth, M. Kramer, F. Sirokmán, A. Borsodi, A. Rónai: J. Label. Comp. Radiopharm. 19 1021 (1976)].

[3] = Sensitivity to light of the isolated product
[4] = compared with naloxone; cited from earlier work
[5] = compound concentration 10⁻⁵ mol
[6] = compound concentration 10⁻⁷ mol

Row | Structure (SMILES) | Hot plate test ED₅₀ [1] [mg/kg.sc] | Tail Flick ED₅₀ [2] [mg/kg.sc.] | residual tritiated specific bonds of Naloxon (opiate receptors; [5]) [%] | residual tritiated specific bonds of Naloxon (opiate receptors; [6]) [%] | sensitivity to light [3] | membrane affinity [4]
1 | CN1CC[C@]23c4c5ccc(O)c4O[C@H]2C(=NNC(N)=O)CC[C@@]3(O)[C@H]1C5 [Oxymorphone semicarbazone, 14-OH-dihydromarphinone semicarbazone] | 0.9 | 0.9 |  |  |  | 
2 | CN1CC[C@]23c4c5ccc(O)c4O[C@H]2C(=NNC(N)=O)CC[C@H]3[C@H]1C5 [Dihydromorphinone semicarbazone] | 0.085 | 0.13 | 4±6 | 69±13 |  | 
3 | COc1ccc2c3c1O[C@H]1C(=NNC(N)=O)CC[C@@]4(O)[C@@H](C2)N(C)CC[C@]314 [Oxycodone semicarbazone, 14-OH-dihydrocodeinonesemicarbazone] | 0.58 | 0.45 |  |  |  | 
4 | CN1CC[C@]23c4c5ccc(O)c4O[C@H]2C(=NNc2ccccc2)CC[C@H]3[C@H]1C5 [Dihydromorphinone phenylhydrazone] |  |  | 10±14 | 4±5 |  | 
5 | CN1CC[C@]23c4c5ccc(O)c4O[C@H]2C(=NNc2ccc([N+](=O)[O-])cc2[N+](=O)[O-])CC[C@@]3(O)[C@H]1C5 [Oxymorphone dinitrophenylhydrazone, 14-OH-dihydromorphinone-2,4-dinitrophenyl hydrazone] | 0.37 | 0.27 | 1±0.3 | 33±1 |  | 
6 | COc1ccc2c3c1O[C@H]1C(=NNc4ccccc4)CC[C@@]4(O)[C@@H](C2)N(C)CC[C@]314 [Oxycodone phenylhydrazone, 14-OH-dihydrocodeinone phenylhydrazone] | 0.8 | 1.2 |  |  |  | 
7 | COc1ccc2c3c1O[C@H]1C(=NNc4ccccc4)CC[C@H]4[C@@H](C2)N(C)CC[C@]314 [Dihydrocodeinone phenylhydrazone] | 2.4 | 2.3 | 5±1 | 75±9 |  | 
8 | COc1ccc2c3c1O[C@H]1C(=NN)C=C[C@@]4(O)[C@@H](C2)N(C)CC[C@]314 [Oxycodeinone hydrazone, 14-OH-codeinone hydrazone] |  |  | 13±7 | 92±25 |  | 
9 | COc1ccc2c3c1O[C@H]1C(=NNc4ccccc4)C=C[C@@]4(O)[C@@H](C2)N(C)CC[C@]314 [14-OH-codeinone phenylhydrazone] |  |  |  |  | sensitive to light | 
10 | CN1CC[C@]23c4c5ccc(O)c4O[C@H]2C(=NNC(N)=S)CC[C@H]3[C@H]1C5 [Dihydromorphinone thiosemicarbazone] |  |  | 19±4 | 16±5 |  | 
11 | C=CCN1CCC23c4c5ccc(O)c4OC2C(=NNc2ccccc2)CCC3(O)C1C5 (stereo not shown) [naloxone phenylhydrazone] |  |  |  |  |  | much weaker membrane affinity than naloxone
12 | CN1CC[C@]23c4c5ccc(O)c4O[C@H]2C(=NNC(N)=S)CC[C@@]3(O)[C@H]1C5 [Oxymorphone thiosemicarbazone, 14-OH dihydromorphine thiosemicarbazone] |  |  | 0 | 37±9 |  | 
13 | CN1CC[C@]23c4c5ccc(O)c4O[C@H]2[C@@H](O)C=C[C@H]3[C@H]1C5 [Morphine, reference compound] | 3.6 | 5.0 |  |  |  | 
14 | COc1ccc2c3c1O[C@H]1C(=NNC(N)=S)CC[C@H]4[C@@H](C2)N(C)CC[C@]314 [Dihydrocodeinone thiosemicarbazone] | 1.7 | 0.6 |  |  |  | 
15 | COc1ccc2c3c1O[C@H]1C(=NNC(N)=O)CC[C@H]4[C@@H](C2)N(C)CC[C@]314 [Dihydrocodeinone semicarbazone] | 0.38 | 0.35 | 9±7 | 43±4 |  | 
16 | CN1CC[C@]23c4c5ccc(O)c4O[C@H]2C(=NNc2ccc([N+](=O)[O-])cc2[N+](=O)[O-])CC[C@H]3[C@H]1C5 [Dihydromorphinone dinitrophenylhydrazone, Dihydromorphinone-2,4-dinitrophenyl hydrazone] | 0.27 | 0.18 | 0.5±0.7 | 17±2 |  | 
